Data taken from PubChem BioAssay AID652041 (Broad Institute, 2013).
Calls of active or inactive are those of the source.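 The calls were made as follows: active = fitted curve reaching a 35% signal drop at a concentration under 10 µM, within twice the top tested dose; inconclusive = no clear call, values can overlap the other calls; inactive = the rest, including activity opposite to the expected direction.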

How the values were obtained:
[1] = antimalarial activity against intraerythrocytic HB3 parasites – HB3 strain, red blood cells, SYBR Green, cherry-picked, dose response (AID 652041);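 also: parasites exposed to compound for 72 hours before the DNA read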; conditions: P. falciparum HB3 in RBCs, SYBR Green DNA fluorescence; at 50 µM (top of the series)
[2] = tested on: P. falciparum HB3 in RBCs, SYBR Green DNA fluorescence; assay: as above

| Compound | activity change, negative = inhibition [1] | AC35 [2] [µM] |
| --- | --- | --- |
| COc1ccc(N(C(=O)c2ccncc2)S(=O)(=O)c2ccc(F)cc2)cc1 | -13.3% (inactive) | – |
| CCOC(=O)c1ccc(N2C(=O)CC(N3CCC(O)(c4ccc(Cl)cc4)CC3)C2=O)cc1 (configuration not stated) | -5.74% (inactive) | – |
| CCCn1c2ccccc2c2cc(C(=O)O)ccc21 | -6.37% (inactive) | – |
| CC(C)CSc1n[nH]c(=S)s1 | 1.38% (inactive) | – |
| Cc1nc2ccc(C(=O)NCc3ccc4c(c3)OCO4)cc2s1 | -24.7% (inactive) | – |
| COc1cccc(C(C)=C2SC(=S)NC2=O)c1 | -7.61% (inactive) | – |
| Cc1cc(NS(=O)(=O)c2ccc(C3CCCCC3)cc2)no1 | 0.534% (inactive) | – |
| CC1CCN(c2ccc3c(c2)S(=O)(=O)c2ccccc2C3=O)CC1 | -1.13% (inactive) | – |
| Clc1ccc(-c2n[nH]c3c2CCC3)cc1Cl | -19.3% (inactive) | – |
| CC1=NN(C(N)=S)C(=O)C1N=Nc1cccc(Cl)c1C (configuration not stated) | -12.3% (inactive) | – |
| CCCSC(=S)c1c(C)[nH]n(-c2ccccc2)c1=O | -14.2% (inactive) | – |
| CCCOc1ccc2ccccc2c1/C=C1\SC(=O)NC1=O | -14.8% (inactive) | – |
| COC(OC)c1ccc(C#N)c(SCc2ccccc2)n1 | -17.5% (inactive) | – |
| O=C1N(c2ccc(Cl)cc2)C(c2cccnc2)N2CCCN12 (configuration not stated) | -10.4% (inactive) | – |
| c1ccc(-c2ccc(OCCCn3cncn3)cc2)cc1 | -10.3% (inactive) | – |
| CC1Oc2ccccc2C=C1/C=N/Nc1ccc(C(=O)O)cc1 (configuration not stated) | -20.4% (inactive) | – |
| CC12CCC(O)CC1=CCC1C2CCC2(C)C3=NN=CC3CC12 (configuration not stated) | -17.5% (inactive) | – |
| CCn1c(CNc2ccc(Cl)cc2)nnc1SCc1ccccc1 | -25.3% (inactive) | – |
| CCCOc1ccc(S(=O)(=O)n2cc(F)c(=O)[nH]c2=O)cc1 | -21.3% (inactive) | – |
| Cc1cccc(C)c1N1C(=O)C2ON(c3ccccc3)C(c3ccncc3)C2C1=O (configuration not stated) | -11.3% (inactive) | – |
| CCCCn1c(=O)c(C(=O)NCc2ccncc2)c(O)c2ccccc21 | -14% (inactive) | – |
| COc1cc2c(c(OC)c1OC)-c1ccc(O)c(=O)cc1[C@@H](NC(C)=O)CC2 | -18.5% (inactive) | – |
| Nc1nc2sc3c(c2c(=O)s1)CCCC3 | -20.8% (inactive) | – |
| CC(C)NC(=O)NC(=O)COC(=O)c1ccc([N+](=O)[O-])cc1Cl | -11.6% (inactive) | – |
| C=CCOC(Cn1ccnc1)c1ccc(Cl)cc1Cl (configuration not stated) | – | 7.38 |
| O=C(O)c1c(NC(=O)N2CCCC2)sc2c1CCCC2 | -0.929% (inactive) | – |

| Compound | activity change, negative = inhibition [1] | AC35 [2] [µM] |
| --- | --- | --- |
| COc1ccc(N=N/C(=C\O)C(=O)c2cccs2)cc1 | – | 7.99 |
| COc1ccc(-c2cc(C(=O)N3CCN(c4ccccc4F)CC3)c3ccccc3n2)c(OC)c1 | – | 6.74 |
| c1ccc(-c2ccc(SCc3cccnc3)nn2)nc1 | – | 35.5 |
| Cc1ccccc1Oc1nc(-c2ccccn2)nc2ccccc12 | – | 4.4 |
| C=CCc1ccc(O)c(-c2ccc(O)c(CC=C)c2)c1 | – | 14.7 |
| O=C(Nc1nc(-c2ccccn2)cs1)c1ccc(Br)s1 | – | 0.662 |
| O/N=C(\c1ccc(Cl)cc1)c1cc2ccccc2o1 | – | 16.4 |
| CN(C)c1nc(SCc2ccc(Cl)cc2)nc2c1CCCC2 | – | 33.5 |
| CCC(NC(=S)NCc1ccc(F)cc1)c1ccc(C(C)C)cc1 (configuration not stated) | – | 11.3 |
| O=C(COc1ccccc1F)Nc1nc(-c2ccccn2)cs1 | – | 12 |
| CN1CCN(C(=O)c2cc(COc3ccc(F)cc3Cl)on2)CC1c1ccccc1 (configuration not stated) | – | 33.5 |
| COc1ccc(N(C(=O)c2ccncc2)S(=O)(=O)c2ccccc2)cc1 | -28% (inactive) | – |
| Cc1cc(C)c(C(=O)CC(=O)c2cccnc2)c(C)c1 | – | 8.29 |
| Oc1cccc2ccc(Nc3ccccn3)nc12 | – | 0.321 |
| CCCCCCn1c(=O)c(C(=O)Nc2ncccc2C)c(O)c2ccccc21 | – | 4.29 |
| CC(C)(C)C(O)C(Cc1ccccc1Cl)n1cncn1 (configuration not stated) | – | 39.3 |
| COc1cc(NS(=O)(=O)c2ccc(C)cc2)c2ncccc2c1 | – | 6.38 |
| FC(F)(F)c1cccc(N2CCc3cn[nH]c32)c1 | – | 28.4 |
| Cc1nc(-c2ccccn2)nc(N(C)c2ccccc2)c1Cl | – | 6.1 |
| CCOc1ccc(N/N=C(/C#N)C(N)=O)cc1 | -12.5% (inactive) | – |
| O=C(c1ccccc1)c1ccc(Cn2cc(-c3ccccc3)nn2)cc1 | – | 40.3 |
| C=CCn1c(-c2cc(-c3ccc(C)cc3)nc3ccccc23)n[nH]c1=S | – | 14.1 |
| C=C1C(=O)C23CCC4C(C)(C(=O)OC)CCCC4(C)C2CCC1(O)C3 (configuration not stated) | – | 1.72 |
| Cc1c(C(=O)O)cccc1-c1ccc(/C=N/Nc2ccc(Br)cc2)o1 | – | 21.3 |
| COc1ccc(C(=O)On2c(-c3ccc(Br)cc3)nc3ccccc3c2=O)cc1 | – | 9.45 |
| O=C(CN1CC[n+]2c(-c3cccs3)csc21)c1ccc(-c2ccccc2)cc1 | – | 1.46 |
